Experimental data reported in patent US7932051B2, “Blood and urine test” (R-Biopharm AG, priority 2003, dated 2011).
Like-named read-outs stand apart in the source and are kept apart here.

Tested on: microbial inhibition test (Premi®Test)
Experimental: Urine samples were examined using microbial inhibition test ampoules produced according to the methods described in EP 0005891 with the nutrients present in the agar. Said test is also known as Premi®Test (commercially available from DSM, Delft, The Netherlands).
Samples were examined as described in Example 1. CaCl2.2H2O was dissolved in water or chicken meat fluid, in concentrations of 0, 0.0078, 0.0156, 0.0312, 0.0625, 0.125, 0.25, 0.5 and 1 M. The samples were added to the test ampoules. After a pre-incubation for 20 minutes at room temperature the sample was removed and the test was incubated in a water bath at 64±1° C. following the instructions of the manufacturer. The results were obtained after 165 minutes for chicken meat fluid and 185 minutes in case of water, by reading the change of color from purple to yellow.

## [Ca+2].[Cl-].[Cl-] [CaCl2, Calcium Chloride]
CaCl2 0.0078 M in chicken meat fluid, read after 165 minutes
  Color observed in microbial inhibition test: Yellow
CaCl2 0.0078 M in water, read after 185 minutes
  Color observed in microbial inhibition test: Yellow
CaCl2 0.0156 M in chicken meat fluid, read after 165 minutes
  Color observed in microbial inhibition test: Yellow
CaCl2 0.0156 M in water, read after 185 minutes
  Color observed in microbial inhibition test: Yellow
CaCl2 0.0312 M in chicken meat fluid, read after 165 minutes
  Color observed in microbial inhibition test: Yellow
CaCl2 0.0312 M in water, read after 185 minutes
  Color observed in microbial inhibition test: Yellow
CaCl2 0.0625 M in chicken meat fluid, read after 165 minutes
  Color observed in microbial inhibition test: Yellow
CaCl2 0.0625 M in water, read after 185 minutes
  Color observed in microbial inhibition test: Yellow
CaCl2 0.125 M in chicken meat fluid, read after 165 minutes
  Color observed in microbial inhibition test: Yellow
CaCl2 0.125 M in water, read after 185 minutes
  Color observed in microbial inhibition test: Yellow
CaCl2 0.25 M in chicken meat fluid, read after 165 minutes
  Color observed in microbial inhibition test: Yellow
CaCl2 0.25 M in water, read after 185 minutes
  Color observed in microbial inhibition test: Yellow
CaCl2 0.5 M in chicken meat fluid, read after 165 minutes
  Color observed in microbial inhibition test: Yellow
CaCl2 0.5 M in water, read after 185 minutes
  Color observed in microbial inhibition test: Purple
CaCl2 1 M in chicken meat fluid, read after 165 minutes
  Color observed in microbial inhibition test: Yellow
CaCl2 1 M in water, read after 185 minutes
  Color observed in microbial inhibition test: Purple
In chicken meat fluid
  Concentration of CaCl2 with no inhibition: up to 1 M
In water
  Concentration of CaCl2 that does not influence the test results: up to 0.25 M
